Converted amounts (≈) assume the structure as drawn. Read-outs that look alike come from different tables or passages of the source. Non-standard residues stand in square brackets, D forms with d. Residues, ends and D or L forms follow the SMILES beside them. *: point of attachment. Palmitoyl = CCCCCCCCCCCCCCCC(=O)*; Undecanoyl = CCCCCCCCCCC(=O)*
Tests used:
Type in all cases: cell-based
B. subtilis ATCC 6051 = tested on: B. subtilis ATCC 6051
[1] = tested on: Candida albicans ATCC 10231; assay: microbe, parasite or virus in culture; settings: for MIC: read-out: Minimal Inhibitory Concentration, Candida Albicans (ATCC 10231)
How it was run: (§1)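 MIC = lowest concentration giving 100% growth inhibition by A620 after 24-48 h at 35 °C with agitation. Inoculum: 1×10^4 CFU/ml (pre-mix) in RPMI 1640/0.165 M MOPS; pH 7.4 by default, 5.5 where noted. Peptide as twofold dilution series in water.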

[2] = tested on: Acinetobacter baumannii ATCC 19606
How it was run: (§2)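 Broth microdilution in LB medium at pH 7.4 (pH 5.5 where indicated), 1×10^6 CFU/ml suspension mixed 1:1 with 2-fold serial dilutions of lipopeptide in water. After 18-20 h at 37° C, growth read by absorbance at 600 nm; MIC is the concentration giving 100% growth inhibition.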

[3] = tested on: Staphylococcus aureus ATCC 6538P
How it was run: as §2

[4] = tested on: Escherichia coli ATCC 25922
How it was run: as §2

[5] = tested on: Pseudomonas aeruginosa ATCC 27853
How it was run: as §2

[6] = tested on: Aspergillus flavus ATCC 9643
[7] = tested on: Aspergillus fumigatus ATCC 26430; assay: microbe, parasite or virus in culture
[8] = tested on: Aspergillus niger ATCC 9642
Experimental: The antifungal activity of the lipopeptides was examined in sterile 96-well plates (Nunc F96 microtiter plates) in a final volume of 200 μL as follows: 100 µl of a suspension containing fungi at a concentration of 1×10^4 Colony-Forming Units (CFU)/ml in culture medium (RPMI 1640, 0.165 M MOPS with L-glutamine, without NaHCO3) at pH 7.4 or pH 5.5 (adjustment of the pH was done by diluted solutions of HCl and NaOH) were added to 100 μl of water containing the peptide in serial 2-fold dilutions in water. The fungi were incubated in the presence of the lipopeptides for 24-48 h at 35° C. in a Binder KB115 incubator under agitation. Growth inhibition was determined by measuring the absorbance at 620 nm with a Microplate autoreader E1309 (Bio-Tek Instruments). Antifungal activity is expressed as the minimal inhibitory concentration (MIC), the concentration at which 100% inhibition of fungi growth was observed after the incubation time mentioned above. The fungi used were: Aspergillus niger ATCC 9642, Candida albicans ATCC 10231 and Cryptococcus neoformans ATCC 66031. If not indicated otherwise, the fungi growth was detected at pH 7.4.

[9] = tested on: Cryptococcus neoformans ATCC MYA-422; assay: microbe, parasite or virus in culture; settings: for MIC: Table 17, D-magainin analog, mean of 3 experiments, standard deviation of 25%, read-out: Minimal Inhibitory Concentration, Cyrptococcus neoformans (ATCC MYA-422)
[10] = tested on: human red blood cells (hRBC); assay: Hemolytic activity, release of hemoglobin at 540 nm; settings: for % of Hemolytic activity at maximal MIC: human
Experimental: Fresh human red blood cells (hRBC) with EDTA were rinsed 3 times with PBS (35 mM phosphate buffer/0.15 M NaCl, pH 7.3) by centrifugation for 10 min at 800 g and resuspended in PBS. Peptides dissolved in PBS were then added to 50 μl of a solution of the stock hRBC in PBS to reach a final volume of 100 μl (final erythrocyte concentration, 4% v/v). The resulting suspension was incubated under agitation for 60 min at 37° C. The samples were then centrifuged at 800×g for 10 min. Release of hemoglobin was monitored by measuring the absorbance of the supernatant at 540 nm. Controls for zero hemolysis (blank) and 100% hemolysis consisted of hRBC suspended in PBS and Triton 1%, respectively.

[11] = tested on: Cryptococcus neoformans ATCC 66031; assay: microbe, parasite or virus in culture; settings: Table 10; pH 7.4
How it was run: as §1

[12] = tested on: Enterococcus faecalis ATCC 29212; settings: Table 4; pH 7.4
How it was run: as §2

[13] = tested on: Enterobacter cloacae ATCC 49141; settings: Table 4; pH 7.4
How it was run: as §2

[14] = Table 8, lipopeptides vs parent peptides, pH 7.4
[15] = Table 14, lipopeptides vs parent peptides, pH 7.4

SMILES	Minimal Inhibitory Concentration, B. subtilis (ATCC 6051) (B. subtilis ATCC 6051; ATCC 6051, pH 7.4) [µM]	MIC ([1]; ATCC 10231, pH 7.4) [µM]	Minimal Inhibitory Concentration, A. baumannii ATCC 19606 ([2]; ATCC 19606, pH 7.4) [µM]	Minimal Inhibitory Concentration, S. aureus ATCC 6538P ([3]; ATCC 6538, pH 7.4) [µM]	Minimal Inhibitory Concentration, E. coli (ATCC 25922) ([4]; ATCC 25922, pH 7.4) [µM]	Minimal Inhibitory Concentration, P. aeruginosa ATCC 27853 ([5]; ATCC 27853, pH 7.4) [µM]	Minimal Inhibitory Concentration, Aspergillus flavus (ATCC 9643) ([6]; ATCC 9643, pH 7.4) [µM]	Minimal Inhibitory Concentration, Aspergillus fumigatus (ATCC 26430) ([7]; ATCC 26430, pH 7.4) [µM]	Minimal Inhibitory Concentration, Aspergillus niger (ATCC 9642) ([8]; ATCC 9642, pH 7.4) [µM]	Minimal Inhibitory Concentration, Cryptococcus neoformans (ATCC MYA-422) ([9]; ATCC MYA-422, pH 7.4) [µM]	Minimal Inhibitory Concentration, B. subtilis (ATCC 6051) (B. subtilis ATCC 6051; ATCC 6051) [µM]	MIC ([1]; ATCC 10231) [µM]	Minimal Inhibitory Concentration, S. aureus ATCC 6538P ([3]; ATCC 6538) [µM]	Minimal Inhibitory Concentration, E. coli (ATCC 25922) ([4]; ATCC 25922) [µM]	Minimal Inhibitory Concentration, P. aeruginosa ATCC 27853 ([5]; ATCC 27853) [µM]	Minimal Inhibitory Concentration, Aspergillus fumigatus (ATCC 26430) ([7]; ATCC 26430) [µM]	% of Hemolytic activity at maximal MIC [10] [%]	MIC [9] [µM]	further results
C[C@H](NC(=O)[C@H](C)NC(=O)[C@H](CCCCN)NC(=O)[C@@H](C)NC(=O)[C@@H](C)NC(=O)[C@H](C)NC(=O)[C@@H](N)CCCCN)C(=O)N[C@H](C)C(=O)N[C@@H](CCCCN)C(=O)N[C@H](C)C(=O)N[C@@H](C)C(=O)N[C@@H](CCCCN)C(N)=O [DK4A8, reference compound] (H-KA[dA][dA]KAA[dA]K[dA]AK-NH2; N-terminus assumed)																			Minimal Inhibitory Concentration, B. subtilis (ATCC 6051) (B. subtilis ATCC 6051; [14]): >100 µM; MIC [1, 15]: >100 µM; Minimal Inhibitory Concentration, A. baumannii ATCC 19606 [2, 14]: >100 µM; Minimal Inhibitory Concentration, S. aureus ATCC 6538P [3, 14]: >100 µM; Minimal Inhibitory Concentration, E. coli (ATCC 25922) [4, 14]: >100 µM; Minimal Inhibitory Concentration, P. aeruginosa ATCC 27853 [5, 14]: >100 µM; Minimal Inhibitory Concentration, Aspergillus flavus (ATCC 9643) [6, 15]: >100 µM; Minimal Inhibitory Concentration, Aspergillus fumigatus (ATCC 26430) [7, 15]: >100 µM; Minimal Inhibitory Concentration, Aspergillus niger (ATCC 9642) [8, 15]: >100 µM; Minimal Inhibitory Concentration, Cryptococcus neoformans (ATCC MYA-422) [9, 15]: >100 µM
NCCCC[C@@H](N)C(=O)NCC(=O)NCC(=O)NCC(=O)N[C@H](CCCCN)C(=O)NCC(=O)NCC(=O)NCC(=O)N[C@H](CCCCN)C(=O)NCC(=O)NCC(=O)N[C@H](CCCCN)C(N)=O [DK4G8, reference compound] (H-[dK]GGG[dK]GGG[dK]GG[dK]-NH2; N-terminus assumed)	>100	>100	>100	>100	>100	>100	>100	>100	>100	>100									
CC(C)[C@H](NC(=O)[C@H](CCCCN)NC(=O)[C@H](NC(=O)[C@H](NC(=O)[C@@H](NC(=O)[C@@H](N)CCCCN)C(C)C)C(C)C)C(C)C)C(=O)N[C@H](C(=O)N[C@@H](C(=O)N[C@@H](CCCCN)C(=O)N[C@@H](C(=O)N[C@H](C(=O)N[C@@H](CCCCN)C(N)=O)C(C)C)C(C)C)C(C)C)C(C)C [DK4V8, reference compound] (H-KV[dV][dV]KVV[dV]K[dV]VK-NH2; N-terminus assumed)	60	>100	>100	>100	>100	>100	>100	>100	>100	50									
CCCCCCCCCCCCCCCC(=O)NCC(=O)N[C@H](C(=O)NCC(=O)N[C@@H](CCCCN)C(=O)N[C@@H](Cc1ccccc1)C(=O)N[C@H](CC(C)C)C(=O)N[C@@H](Cc1c[nH]cn1)C(=O)N[C@@H](CO)C(=O)N[C@@H](C)C(=O)N[C@H](CCCCN)C(=O)N[C@@H](CCCCN)C(=O)N[C@@H](Cc1c[nH]c2ccccc12)C(=O)NCC(=O)N[C@@H](CCCCN)C(=O)N[C@@H](C)C(=O)N[C@H](Cc1ccccc1)C(=O)N[C@H](C(=O)NCC(=O)N[C@H](CCC(=O)O)C(=O)N[C@H](C(=O)N[C@@H](CCSC)C(=O)N[C@@H](CC(N)=O)C(=O)N[C@@H](CO)C(N)=O)[C@@H](C)CC)C(C)C)[C@@H](C)CC [[D]4magainin-PA] (Palmitoyl-GIGKF[dL]HSA[dK]KWGKA[dF]VG[dE]IMNS-NH2)											50	>50	>50	>50	>50	>50	8	6.25 (≈ 17.1 µg/mL)	
CCCCCCCCCCC(=O)NCC(=O)N[C@H](C(=O)NCC(=O)N[C@@H](CCCCN)C(=O)N[C@@H](Cc1ccccc1)C(=O)N[C@H](CC(C)C)C(=O)N[C@@H](Cc1c[nH]cn1)C(=O)N[C@@H](CO)C(=O)N[C@@H](C)C(=O)N[C@H](CCCCN)C(=O)N[C@@H](CCCCN)C(=O)N[C@@H](Cc1c[nH]c2ccccc12)C(=O)NCC(=O)N[C@@H](CCCCN)C(=O)N[C@@H](C)C(=O)N[C@H](Cc1ccccc1)C(=O)N[C@H](C(=O)NCC(=O)N[C@H](CCC(=O)O)C(=O)N[C@H](C(=O)N[C@@H](CCSC)C(=O)N[C@@H](CC(N)=O)C(=O)N[C@@H](CO)C(N)=O)[C@@H](C)CC)C(C)C)[C@@H](C)CC [[D]4magainin-UA] (Undecanoyl-GIGKF[dL]HSA[dK]KWGKA[dF]VG[dE]IMNS-NH2)											6.25	>50	50	>50	50	>50	2	6.25 (≈ 16.7 µg/mL)	
CCCCCCCCCCCCCCCC(=O)N[C@@H](CCCCN)C(=O)N[C@@H](C)C(=O)N[C@@H](C)C(=O)N[C@@H](C)C(=O)N[C@@H](CCCCN)C(=O)N[C@@H](C)C(=O)N[C@@H](C)C(=O)N[C@@H](C)C(=O)N[C@@H](CCCCN)C(=O)N[C@@H](C)C(=O)N[C@@H](C)C(=O)N[C@@H](CCCCN)C(N)=O [lipopeptide 6, (CH3—(CH2)14—CO—)-Lys-Ala-Ala-Ala-Lys-Ala-Ala-Ala-Lys-Ala-Ala-Lys-NH2] (Palmitoyl-KAAAKAAAKAAK-NH2)																			Minimal Inhibitory Concentration, C. albicans ATCC 10231 ([1]; Table 10, pH 7.4): 3.125 µM; Minimal Inhibitory Concentration, C. neoformans ATCC 66031 [11]: 1.56 µM; Minimal Inhibitory Concentration, E. faecalis [12]: 50 µM; Minimal Inhibitory Concentration, A. Baumaannii ([2]; Table 4, pH 7.4): 25 µM; Minimal Inhibitory Concentration, E. cloacae [13]: 100 µM; Minimal Inhibitory Concentration, S. aureus ([3]; Table 4, pH 7.4): 50 µM; Minimal Inhibitory Concentration, E. coli ([4]; Table 4, pH 7.4): 50 µM; Minimal Inhibitory Concentration, P. Aeruginosa ([5]; Table 4, pH 7.4): 25 µM; Minimal Inhibitory Concentration, A. fumigatus ATCC 26430 ([7]; Table 10, pH 7.4): 12.5 µM; hemolytic activity ([10]; at concentrations lower than 12 μM, human red blood cells (FIGS. 1-5)): do not exhibit significant hemolytic activity

Source: patent publication US8445636B2, “Antimicrobial and anticancer lipopeptides” (Yeda Research & Development Co. Ltd., priority 2003, dated 2013)
